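Compound exposure: 48 hours, 5 concentrations, 96-well plates. TGI is the concentration that stops growth completely.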
What was measured:
Assay in all cases: NCI tumour cell line growth inhibition, 48 h
[1] = tested on: 786-0 renal
[2] = tested on: A498 renal
[3] = tested on: A549 NSCLC
[4] = tested on: ACHN renal
[5] = tested on: CAKI-1 renal
[6] = tested on: CCRF-CEM leukemia
[7] = tested on: COLO 205 colon
[8] = tested on: DLD-1 colon
[9] = tested on: DMS 114 small cell lung
[10] = tested on: DMS 273 small cell lung
[11] = tested on: EKVX NSCLC
[12] = tested on: HCC-2998 colon
[13] = tested on: HCT-116 colon
[14] = tested on: HCT-15 colon
[15] = tested on: HL-60(TB) leukemia
[16] = tested on: HOP-18 NSCLC
[17] = tested on: HOP-62 NSCLC
[18] = tested on: HOP-92 NSCLC
[19] = tested on: HT29 colon
[20] = tested on: IGROV1 ovarian
[21] = tested on: K-562 leukemia
[22] = tested on: KM12 colon
[23] = tested on: KM20L2 colon
[24] = tested on: LOX IMVI melanoma
[25] = tested on: LXFL 529 NSCLC
[26] = tested on: M14 melanoma
[27] = tested on: MALME-3M melanoma
[28] = tested on: MOLT-4 leukemia
[29] = tested on: NCI-H226 lung
[30] = tested on: NCI-H23 lung
[31] = tested on: NCI-H460 lung
[32] = tested on: NCI-H522 lung
[33] = tested on: OVCAR-3 ovarian
[34] = tested on: OVCAR-4 ovarian
[35] = tested on: OVCAR-5 ovarian
[36] = tested on: OVCAR-8 ovarian
[37] = tested on: RPMI-8226 leukemia
[38] = tested on: RXF 393 renal
[39] = tested on: RXF-631 renal
[40] = tested on: SF-268 CNS
[41] = tested on: SF-295 CNS
[42] = tested on: SF-539 CNS
[43] = tested on: SK-MEL-2 melanoma
[44] = tested on: SK-MEL-28 melanoma
[45] = tested on: SK-MEL-5 melanoma
[46] = tested on: SK-OV-3 ovarian
[47] = tested on: SN12C renal
[48] = tested on: SNB-19 CNS
[49] = tested on: SNB-75 CNS
[50] = tested on: SNB-78 CNS
[51] = tested on: SR leukemia
[52] = tested on: SW-620 colon
[53] = tested on: TK-10 renal
[54] = tested on: U251 CNS
[55] = tested on: UACC-257 melanoma
[56] = tested on: UACC-62 melanoma
[57] = tested on: UO-31 renal
[58] = tested on: XF 498 CNS
[59] = tested on: BT-549 breast
[60] = tested on: DU-145 prostate
[61] = tested on: HS 578T breast
[62] = tested on: M19-MEL melanoma
[63] = tested on: MCF7 breast
[64] = tested on: MDA-MB-231 breast
[65] = tested on: MDA-MB-435
[66] = tested on: MDA-N
[67] = tested on: NCI/ADR-RES ovarian
[68] = tested on: PC-3 prostate
[69] = tested on: T-47D breast

Structure (SMILES): CC(SC1=CC(=O)c2c(O)ccc(O)c2C1=O)C(=O)O (stereo not drawn)
- TGI [1]: 56.8 µM
- TGI [2]: > 100 µM
- TGI [3]: > 100 µM
- TGI [4]: > 64.1 µM
- TGI [5]: 72.2 µM
- TGI [6]: 14.8 µM
- TGI [7]: > 60.3 µM
- TGI [8]: > 57.1 µM
- TGI [9]: 44 µM
- TGI [10]: > 100 µM
- TGI [11]: > 100 µM
- TGI [12]: > 100 µM
- TGI [13]: > 72.3 µM
- TGI [14]: > 55.3 µM
- TGI [15]: > 41.9 µM
- TGI [16]: > 90.3 µM
- TGI [17]: > 100 µM
- TGI [18]: > 83.1 µM
- TGI [19]: > 100 µM
- TGI [20]: > 68.6 µM
- TGI [21]: 40.7 µM
- TGI [22]: > 100 µM
- TGI [23]: > 100 µM
- TGI [24]: > 57.7 µM
- TGI [25]: > 51.6 µM
- TGI [26]: > 75.8 µM
- TGI [27]: > 64.6 µM
- TGI [28]: 60.7 µM
- TGI [29]: > 100 µM
- TGI [30]: > 90.4 µM
- TGI [31]: > 100 µM
- TGI [32]: 9.79 µM
- TGI [33]: 53.1 µM
- TGI [34]: 35 µM
- TGI [35]: > 100 µM
- TGI [36]: > 89.3 µM
- TGI [37]: > 96.2 µM
- TGI [38]: > 64.4 µM
- TGI [39]: > 100 µM
- TGI [40]: > 75.1 µM
- TGI [41]: > 100 µM
- TGI [42]: > 100 µM
- TGI [43]: > 100 µM
- TGI [44]: > 80.1 µM
- TGI [45]: > 100 µM
- TGI [46]: > 100 µM
- TGI [47]: > 77.7 µM
- TGI [48]: > 100 µM
- TGI [49]: > 75.9 µM
- TGI [50]: > 79.1 µM
- TGI [51]: > 100 µM
- TGI [52]: > 55.6 µM
- TGI [53]: > 82.2 µM
- TGI [54]: > 60.1 µM
- TGI [55]: > 66 µM
- TGI [56]: 36.6 µM
- TGI [57]: > 75.4 µM
- TGI [58]: > 82.2 µM

Structure (SMILES): COc1ccc(N=Cc2ccc(N(CCC#N)CCC#N)cc2)cc1
- TGI [1]: > 100 µM
- TGI [2]: > 100 µM
- TGI [3]: > 100 µM
- TGI [4]: > 100 µM
- TGI [59]: > 100 µM
- TGI [5]: > 100 µM
- TGI [6]: > 100 µM
- TGI [7]: > 100 µM
- TGI [8]: > 100 µM
- TGI [9]: > 100 µM
- TGI [10]: > 100 µM
- TGI [60]: > 100 µM
- TGI [11]: > 100 µM
- TGI [12]: > 88.1 µM
- TGI [13]: > 100 µM
- TGI [14]: > 100 µM
- TGI [15]: > 100 µM
- TGI [16]: > 100 µM
- TGI [17]: > 100 µM
- TGI [18]: > 100 µM
- TGI [61]: > 100 µM
- TGI [19]: > 100 µM
- TGI [20]: > 100 µM
- TGI [21]: > 100 µM
- TGI [22]: > 100 µM
- TGI [23]: > 100 µM
- TGI [24]: > 100 µM
- TGI [25]: > 84.5 µM
- TGI [26]: > 100 µM
- TGI [62]: > 91.8 µM
- TGI [27]: > 100 µM
- TGI [63]: > 100 µM
- TGI [64]: > 100 µM
- TGI [65]: > 100 µM
- TGI [66]: > 100 µM
- TGI [28]: > 100 µM
- TGI [29]: > 100 µM
- TGI [30]: > 100 µM
- TGI [31]: > 100 µM
- TGI [32]: > 100 µM
- TGI [67]: > 100 µM
- TGI [33]: > 100 µM
- TGI [34]: > 100 µM
- TGI [35]: > 100 µM
- TGI [36]: > 100 µM
- TGI [68]: > 100 µM
- TGI [37]: > 100 µM
- TGI [38]: > 100 µM
- TGI [40]: > 100 µM
- TGI [41]: > 100 µM
- TGI [42]: 78.7 µM
- TGI [43]: > 84.2 µM
- TGI [44]: > 100 µM
- TGI [45]: > 100 µM
- TGI [46]: > 100 µM
- TGI [47]: > 100 µM
- TGI [48]: > 100 µM
- TGI [49]: > 100 µM
- TGI [50]: > 100 µM
- TGI [51]: > 100 µM
- TGI [52]: > 100 µM
- TGI [69]: > 100 µM
- TGI [53]: > 89 µM
- TGI [54]: > 100 µM
- TGI [55]: > 100 µM
- TGI [56]: > 100 µM
- TGI [57]: > 100 µM
- TGI [58]: > 100 µM

Structure (SMILES): CCOC(OC1=C(C#N)CCC1)C(CC)[Se]c1ccccc1 (stereo not drawn)
- TGI [1]: 28.2 µM
- TGI [2]: > 100 µM
- TGI [3]: > 100 µM
- TGI [4]: 81.9 µM
- TGI [5]: > 100 µM
- TGI [6]: > 100 µM
- TGI [7]: 53.9 µM
- TGI [8]: 41.2 µM
- TGI [9]: 10.4 µM
- TGI [10]: 24.2 µM
- TGI [11]: 89 µM
- TGI [12]: 83.8 µM
- TGI [13]: 57.6 µM
- TGI [14]: > 100 µM
- TGI [15]: 38.4 µM
- TGI [16]: 69.5 µM
- TGI [17]: > 100 µM
- TGI [18]: 54 µM
- TGI [19]: 80.5 µM
- TGI [20]: 71 µM
- TGI [21]: > 100 µM
- TGI [22]: > 100 µM
- TGI [23]: 64.7 µM
- TGI [24]: 17.7 µM
- TGI [25]: 48.5 µM
- TGI [26]: 32.3 µM
- TGI [62]: 30.3 µM
- TGI [27]: 66.7 µM
- TGI [28]: 48.8 µM
- TGI [29]: 53.4 µM
- TGI [30]: 25.1 µM
- TGI [31]: > 100 µM
- TGI [32]: 26.8 µM
- TGI [33]: 58.5 µM
- TGI [34]: 33.1 µM
- TGI [35]: 54.8 µM
- TGI [36]: 65.2 µM
- TGI [37]: 49.8 µM
- TGI [38]: 38.7 µM
- TGI [40]: 38.7 µM
- TGI [41]: 52.7 µM
- TGI [42]: 37.6 µM
- TGI [43]: 80.8 µM
- TGI [44]: 90.4 µM
- TGI [45]: 31.6 µM
- TGI [46]: > 100 µM
- TGI [47]: 32.3 µM
- TGI [48]: > 100 µM
- TGI [49]: 64.2 µM
- TGI [50]: > 100 µM
- TGI [51]: 31.1 µM
- TGI [53]: > 100 µM
- TGI [54]: 23.9 µM
- TGI [55]: > 100 µM
- TGI [56]: 61.9 µM
- TGI [57]: 73.6 µM
- TGI [58]: 49.7 µM
